Experiments:
IDO1 [1] = biological target: T1, IDO1 (Homo sapiens, UniProt P14902); test: IDO1 Human Whole blood Assay; assay type: cell-based; parameters: Human whole blood was drawn in sodium heparin coated tubes from healthy internal donors; from tissue; host or cells: human whole blood from healthy donors, stimulated with LPS and IFNγ; conditions: LPS and IFNγ stimulated, 18 h, read-out: Human Whole Blood Potency, IC50
Description: IDO1Human Whole blood Assay
Compounds to be tested were serially diluted in ten 3-fold steps in DMSO starting from 10 mM. 3 μL of compound dilutions or DMSO alone were then dispensed from the dilution plate into a polypropylene 96-well assay plate containing 97 μL of RPMI medium using an Echo 555 acoustic liquid handler (Labcyte). LPS and IFNγ was prepared in RPMI medium to a 10× of final conc. (1000 ng/mL), final concentration is 100 ng/mL.
Human whole blood was drawn in sodium heparin coated tubes from healthy internal donors. 240 μL of blood was transferred to each of the wells of a v-bottom 96 well plate. 30 μL of compound was transferred from intermediate dilution plate, and incubated for 15 min. 30 μL from stimulants was then transferred to blood and mixed thoroughly. Plate was covered with breathable membrane and incubated at 37° C. for overnight (18 h).
On day 2, isotope labeled standard solutions of kynurenine and tryptophan was made in water at 10× concentration and 30 μL was added to the blood at 3 μM final concentration. The assay plates were centrifuged at 300×G for 10 min with no brake to separate plasma from red blood cells. 60 μL of plasma samples was removed without disturbing red blood cells. Plasma was diluted with RPMI in 1:1 ratio and proteins were precipitated out with two volumes of Acetonitrile. The plates were centrifuged at 4000×G for 60 min. 20 μL of supernatant was carefully transferred to a 384 well plate containing 40 μL of 0.1% formic acid in water and analyzed by LC/MS/MS.
LC/MS/MS analyses were performed using Thermo Fisher's LX4-TSQ Quantum Ultra system. This system consists of four Agilent binary high-performance liquid chromatography (HPLC) pumps and a TSQ Quantum Ultra triple quadrupole MS/MS instrument. For each sample, 5 μL were injected onto an Atlantis T3 column (2.1 mm×150 mm, 3 μm particle size) from Waters. The mobile phase gradient pumped at 0.8 mL/min was used to elute the analytes from the column at 25° C. The elution started at 0% B increasing linearly to 25% B at 6.5 min, holding at 25% for 1 min, re-equilibrating to 10 min. Mobile phase A consisted of 0.1% formic acid in water. Mobile phase B consisted of 0.1% of formic acid in acetonitrile. Data were acquired in positive mode using a HESI interface. The operational parameters for the TSQ Quantum Ultra instrument were a spray voltage of 4000 V, capillary temperature of 380° C., vaporizer temperature 400° C., shealth gas 60 arbitrary units, Aux gas 20 arbitrary units, tube lens 85 and collision gas 1.2 mTorr. SRM chromatograms of kynurenine (Q1: 209.2>Q3:94.0) and internal standard (Q1: 215.3>Q3:98.2) were collected for 90 sec. The peak area was integrated by Xcalibur Quan software. The ratios between the kynurenine generated in the reaction and 2D6-Kynurenine spiked-in internal standard were used to generate percentage inhibition and IC50 values. Compounds were titrated and IC50's were calculated by 4 parameter sigmoidal curve fitting formula.

IDO1 [2] = biological target: T1, IDO1; test: IDO1 Cellular Assay in HeLa Cells Stimulated with IFNγ; assay type: cell-based; conditions: read-out: HeLa Cell Potency, IC50

T1 sequence (P14902 whole entry): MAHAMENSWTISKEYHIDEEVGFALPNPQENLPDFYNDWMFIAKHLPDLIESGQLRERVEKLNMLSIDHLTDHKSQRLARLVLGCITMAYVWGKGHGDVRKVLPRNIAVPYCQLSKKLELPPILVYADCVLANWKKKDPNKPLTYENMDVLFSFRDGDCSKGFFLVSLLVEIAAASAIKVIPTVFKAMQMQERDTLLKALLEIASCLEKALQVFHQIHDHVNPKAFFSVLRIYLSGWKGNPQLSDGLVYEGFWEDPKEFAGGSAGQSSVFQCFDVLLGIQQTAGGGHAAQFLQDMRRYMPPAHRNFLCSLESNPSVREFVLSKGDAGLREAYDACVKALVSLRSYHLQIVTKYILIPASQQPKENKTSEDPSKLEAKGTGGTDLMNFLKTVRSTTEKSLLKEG

SMILES | IC50 (IDO1 [1]) [nM] | IC50 (IDO1 [2]) [nM]
Cc1cccc(N2CCN(C(=O)Cn3nc(C(=O)N4CC[C@H](O)[C@H](F)C4)c4c3CC(C(F)F)C4)CC2)c1C (mixture of isomers) [Example 17, 2-[rac-5-(difluoromethyl)-3-[(3R,4S)-3-fluoro-4-hydroxy-piperidine-1-carbonyl]-5,6-dihydro-4H-cyclopenta[c]pyrazol-1-yl]-1-[4-(2,3-dimethylphenyl)piperazin-1-yl]ethanone] | 625 | 10.9
Cc1cccc(N2CCN(C(=O)Cn3nc(C(=O)N4CCC(O)CC4)c4c3CC(C(F)F)C4)CC2)c1C (racemic) [Example 16, 2-[rac-5-(difluoromethyl)-3-(4-hydroxypiperidine-1-carbonyl)-5,6-dihydro-4H-cyclopenta[c]pyrazol-1-yl]-1-[4-(2,3-dimethylphenyl)piperazin-1-yl]ethanone] | 143 | 2.21
Cc1cccc(N2CCN(C(=O)Cn3nc(C(=O)N4CCC(OCCO)CC4)c4c3C[C@H]3C[C@@H]43)[C@H]3CCC[C@@H]32)c1C (racemic) [Example 326, 1-[rac-(4aS,7aS or 4aR,7aR)-1-(2,3-dimethylphenyl)-3,4a,5,6,7,7a-hexahydro-2H-cyclopenta[b]pyrazin-4-yl]-2-[(2R,4R)-9-[4-(2-hydroxyethoxy)piperidine-1-carbonyl]-7,8-diazatricyclo[4.3.0.02,4]nona-1(6),8-dien-7-yl]ethanone] | 813 | 5.03
Cc1cccc(N2CCN(C(=O)Cn3nc(C(=O)N4CCCC4)c4c3CCC(F)C4)CC2)c1C (single isomer, unassigned) [Example 7, 1-(4-(2,3-dimethylphenyl)piperazin-1-yl)-2-(5-fluoro-3-(pyrrolidine-1-carbonyl)-4,5,6,7-tetrahydro-1H-indazol-1-yl)ethanone] | 934 | 11.1
Cc1cccc(N2CCN(C(=O)Cn3nc(C(=O)N4CCCC4)c4c3CCC(F)C4)CC2)c1C (single isomer, unassigned) [Example 8, 1-(4-(2,3-dimethylphenyl)piperazin-1-yl)-2-(5-fluoro-3-(pyrrolidine-1-carbonyl)-4,5,6,7-tetrahydro-1H-indazol-1-yl)ethanone] | 2440 | 11.3
Cc1cccc(N2CCN(C(=O)Cn3nc(C(=O)N4CCC(O)CC4)c4c3C[C@H](C(F)F)C4)CC2)c1C (single isomer, unassigned) [Example 9] | 126 | 4.26
Cc1cccc(N2CCN(C(=O)Cn3nc(C(=O)N4CCC(O)CC4)c4c3CC(C(F)F)C4)CC2)c1C (single isomer, unassigned) [Example 10, 2-[5-(difluoromethyl)-3-(4-hydroxypiperidine-1-carbonyl)-5,6-dihydro-5H-cyclopenta[c]pyrazol-1-yl]-1-[4-(2,3-dimethylphenyl)piperazin-1-yl]ethanone] | 233 | 1.74
Cc1cccc(N2CCN(C(=O)Cn3nc(C(=O)N4CC[C@H](O)[C@H](F)C4)c4c3CC(C(F)F)C4)CC2)c1C (single isomer, unassigned) [Example 11] | 980 | 7.6
Cc1cccc(N2CCN(C(=O)Cn3nc(C(=O)N4CC[C@H](O)C(F)(F)C4)c4c3CCC4)CC2)c1C (single isomer, unassigned) [Example 201, 2-[3-[(4S or 4R)-3,3-difluoro-4-hydroxy-piperidine-1-carbonyl]-5,6-dihydro-4H-cyclopenta[c]pyrazol-1-yl]-1-[4-(2,3-dimethylphenyl)piperazin-1-yl]ethanone] | 1800 | 3.67
Cc1cccc(N2CCN(C(=O)Cn3nc(C(=O)N4C[C@@H](C)O[C@@H](C)C4)c4c3CCC4)CC2)c1 [Example 488, 2-(3-((2S,6R)-2,6-dimethylmorpholine-4-carbonyl)-5,6-dihydrocyclopenta [c]pyrazol-1(4H)-yl)-1-(4-(m-tolyl)piperazin-1-yl)ethanone] | – | 83.8

Reference: patent US12264134B2 (Merck Sharp & Dohme LLC, priority 2018, dated 2025)
